These results are taken from paper PMC9184653, “LDL receptor-related protein 1 (LRP1), a novel target for opening the blood-labyrinth barrier (BLB)” (Signal Transduction and Targeted Therapy, 2022).

Data set [1] has as its target T1, LRP1 (Mus musculus, UniProt Q91ZX7).
T1 construct: from tissue; host or cells: cochleae of C57BL/6J mice
As to the kind of experiment: immunofluorescence imaging of cochleae after intravenous injection (distribution, colocalization with LRP1). In kind it is in vivo. Conditions: i.v. injection. Here is the method: (§1) To classify the roles of LRP1 in the transportation of IETP2 to the inner ear, the binding affinity of IETP2 to LRP1 was first determined using biolayer interferometry (BLI, Fig. 2d). […] SV was further imaged from another view. […] The Manders’ colocalization coefficients (MCCs) of LRP1 and IETP2 in IHCs, ECs, SP cells, and SGNs were 0.71515, 0.64284, 0.56482, and 0.70552, respectively.
Four-week-old C57BL/6J mice of either sex were harvested 50 min and 2 h post-injection. Cochleae were fixed in 4% paraformaldehyde at 4 °C for 8 h and decalcified in 4% EDTA for 4 days at room temperature (RT). Parts of the cochleae were dissected into pieces containing the basilar membrane (BM), organ of Corti (OC) and stria vascularis (SV) from the apex to the hook region and then used for whole-mount immunofluorescence. Other parts of the cochleae were dehydrated using a graded sucrose solution (15% and 30%; 3 h for each grade) at RT, embedded in optimum cutting temperature (OCT) compound for 5 h at RT, frozen for 1 h at −20 °C and sectioned with a freezing microtome (Leica CM1900) at an 8 μm thickness.
For whole-mount and cross-section immunofluorescence, tissues were incubated with 0.1% Triton X-100 and blocked with 10% donkey serum for 2 h at RT before the application of the primary antibodies. […]

Data set [2] concerns the target LRP1 (Homo sapiens, UniProt Q07954). Put plainly: biolayer interferometry (BLI) binding of IETP2 to LRP1. The settings on record: kinetic analysis, read-out: dissociation constant (KD) of IETP2 binding to LRP1.
From the text: Gly-Cy5.5 served as a negative control. d Kinetic analysis of IETP2 binding to LRP1. […] Scale bars: e, j, o 100 µm, y, z 50 µm, others 10 µm.)
as §1
For orientation: Biolayer interferometry detects binding as a change in optical thickness at a sensor tip.

For data set [3], the system named is mouse cochleae. As to the kind of experiment: in vivo and ex vivo fluorescence imaging of cochlear uptake. The settings on record: IETP2-Cy5.5, i.v., BALB/c nude mice. The source says: To validate whether the selected IETPs could cross the BLB and to evaluate the inner ear-targeting efficacy, IETPs were covalently conjugated with the fluorescent dye Cy5.5 and intravenously injected into mice. In vivo and ex vivo fluorescence imaging of cochleae was used for evaluation. […] The IETP2 signal was visualized with in vivo fluorescence imaging (Fig. 2c). Compared to that in the brain and muscle, the signal of IETP2 detected in the cochleae was much stronger (Fig. 2c). […] Therefore, IETP2 was selected for the subsequent experiments.
BALB/c nude mice (4 weeks old, either sex) were divided into three groups (5 mice for each group). […] After the indicated times, the animals were anesthetized with isoflurane and subjected to live animal imaging (IVIS Lumina III, Caliper LifeSciences, MA, USA). The excitation/emission filter was set at 625/700 nm, and images were taken with an interval of 20 min post-injection. To validate the uptake efficiency of different IETPs, mice were sacrificed 1 h post-injection, and the cochleae were collected and imaged. […] The time-dependent uptake of IETP2 in mouse cochleae was assessed at a series of time points (1, 1.5, 2, and 2.5 h) with 3 mice at each time point for each group. Collected images were analyzed using Living Image software (IVIS Imaging System, 4.5.5).

Data set [4] relates to C57BL/6J mice. As to the kind of experiment: ototoxicity evaluation by auditory brainstem response (ABR) testing. In kind it is in vivo, mouse. Conditions: 6 mice, 12 ears, 7- and 14-days post-administration. Here is the method:
Auditory brainstem response (ABR) testing was conducted in a standard soundproof chamber for animal use. Mice were anesthetized with a mixture of isoflurane (Keyue Life Science Co., Ltd.) and air via a respirator for animal use (Medical Supplies and Services Int., Ltd.) and an aquarium air pump (HAILEA, A00–5505). The final concentration of isoflurane was 2% at a flow rate of 1.5. Circulating heating pads were placed under the mice to maintain body temperature at 37 °C. ABRs were recorded with a Tucker Davis Technologies (TDT) RZ6 instrument, and the sound was delivered by a calibrated loudspeaker (TDT, MF1 2356).
For ABR testing, needle electrodes were inserted beneath the skin. The recording electrode was inserted at the vertex, the reference electrode was inserted at the pinna, and the ground electrode was inserted near the tail. The ABR stimuli were frequency-specific tone pips at frequencies from 1 kHz to 32 kHz with a duration of 5 ms (0.5 ms rise-fall delivered at 21.1/sec), and each response was amplified 10,000-fold with a filter passband of 100 Hz to 3 kHz and averaged over 1024 times. The signal started at 90 dB sound pressure level (SPL) with a step of 10 dB and decreased to 10 dB SPL at frequencies of 4, 8, 16, 24, and 32 kHz for mice. The threshold was defined as the lowest dB SPL with an identifiable and repeatable wave I for mice. […]

The test system of data set [5] is pig cochleae. Put plainly: pig cochlear immunofluorescence imaging after intravenous injection. In kind it is in vivo. Conditions: IETP2 labeled with 5-TAMRA or Cy5.5, earlobe vein injection, 2 h post-injection.
Description: To further test the generality of IETP2 in large mammals, IETP2 labeled with 5-TAMRA or Cy5.5 was injected into pigs via earlobe veins. Two hours post-injection, the pigs were sacrificed (Supplementary Figs. S5 and S6, representative images of three independent experiments).
The zoomed-in OC images in the white dotted rectangle in f.
Images from the IETP2-5-TAMRA injection group. […] Images from the 5-TAMRA injection group. […] The setting parameters for the microscope (including the excitation intensity and emission gain) remained consistent throughout the experiments. c. […] Images of pig cochleae injected with free Cy5.5 (2 h after injection). (DAPI: blue; LRP1: green; phalloidin: magenta. Scale bars for the overview of porcine cochlear mid turn are 200 µm; others are 10 µm.)

Where no end group is shown, it is not given here.

T1 sequence (Q91ZX7 20-4545): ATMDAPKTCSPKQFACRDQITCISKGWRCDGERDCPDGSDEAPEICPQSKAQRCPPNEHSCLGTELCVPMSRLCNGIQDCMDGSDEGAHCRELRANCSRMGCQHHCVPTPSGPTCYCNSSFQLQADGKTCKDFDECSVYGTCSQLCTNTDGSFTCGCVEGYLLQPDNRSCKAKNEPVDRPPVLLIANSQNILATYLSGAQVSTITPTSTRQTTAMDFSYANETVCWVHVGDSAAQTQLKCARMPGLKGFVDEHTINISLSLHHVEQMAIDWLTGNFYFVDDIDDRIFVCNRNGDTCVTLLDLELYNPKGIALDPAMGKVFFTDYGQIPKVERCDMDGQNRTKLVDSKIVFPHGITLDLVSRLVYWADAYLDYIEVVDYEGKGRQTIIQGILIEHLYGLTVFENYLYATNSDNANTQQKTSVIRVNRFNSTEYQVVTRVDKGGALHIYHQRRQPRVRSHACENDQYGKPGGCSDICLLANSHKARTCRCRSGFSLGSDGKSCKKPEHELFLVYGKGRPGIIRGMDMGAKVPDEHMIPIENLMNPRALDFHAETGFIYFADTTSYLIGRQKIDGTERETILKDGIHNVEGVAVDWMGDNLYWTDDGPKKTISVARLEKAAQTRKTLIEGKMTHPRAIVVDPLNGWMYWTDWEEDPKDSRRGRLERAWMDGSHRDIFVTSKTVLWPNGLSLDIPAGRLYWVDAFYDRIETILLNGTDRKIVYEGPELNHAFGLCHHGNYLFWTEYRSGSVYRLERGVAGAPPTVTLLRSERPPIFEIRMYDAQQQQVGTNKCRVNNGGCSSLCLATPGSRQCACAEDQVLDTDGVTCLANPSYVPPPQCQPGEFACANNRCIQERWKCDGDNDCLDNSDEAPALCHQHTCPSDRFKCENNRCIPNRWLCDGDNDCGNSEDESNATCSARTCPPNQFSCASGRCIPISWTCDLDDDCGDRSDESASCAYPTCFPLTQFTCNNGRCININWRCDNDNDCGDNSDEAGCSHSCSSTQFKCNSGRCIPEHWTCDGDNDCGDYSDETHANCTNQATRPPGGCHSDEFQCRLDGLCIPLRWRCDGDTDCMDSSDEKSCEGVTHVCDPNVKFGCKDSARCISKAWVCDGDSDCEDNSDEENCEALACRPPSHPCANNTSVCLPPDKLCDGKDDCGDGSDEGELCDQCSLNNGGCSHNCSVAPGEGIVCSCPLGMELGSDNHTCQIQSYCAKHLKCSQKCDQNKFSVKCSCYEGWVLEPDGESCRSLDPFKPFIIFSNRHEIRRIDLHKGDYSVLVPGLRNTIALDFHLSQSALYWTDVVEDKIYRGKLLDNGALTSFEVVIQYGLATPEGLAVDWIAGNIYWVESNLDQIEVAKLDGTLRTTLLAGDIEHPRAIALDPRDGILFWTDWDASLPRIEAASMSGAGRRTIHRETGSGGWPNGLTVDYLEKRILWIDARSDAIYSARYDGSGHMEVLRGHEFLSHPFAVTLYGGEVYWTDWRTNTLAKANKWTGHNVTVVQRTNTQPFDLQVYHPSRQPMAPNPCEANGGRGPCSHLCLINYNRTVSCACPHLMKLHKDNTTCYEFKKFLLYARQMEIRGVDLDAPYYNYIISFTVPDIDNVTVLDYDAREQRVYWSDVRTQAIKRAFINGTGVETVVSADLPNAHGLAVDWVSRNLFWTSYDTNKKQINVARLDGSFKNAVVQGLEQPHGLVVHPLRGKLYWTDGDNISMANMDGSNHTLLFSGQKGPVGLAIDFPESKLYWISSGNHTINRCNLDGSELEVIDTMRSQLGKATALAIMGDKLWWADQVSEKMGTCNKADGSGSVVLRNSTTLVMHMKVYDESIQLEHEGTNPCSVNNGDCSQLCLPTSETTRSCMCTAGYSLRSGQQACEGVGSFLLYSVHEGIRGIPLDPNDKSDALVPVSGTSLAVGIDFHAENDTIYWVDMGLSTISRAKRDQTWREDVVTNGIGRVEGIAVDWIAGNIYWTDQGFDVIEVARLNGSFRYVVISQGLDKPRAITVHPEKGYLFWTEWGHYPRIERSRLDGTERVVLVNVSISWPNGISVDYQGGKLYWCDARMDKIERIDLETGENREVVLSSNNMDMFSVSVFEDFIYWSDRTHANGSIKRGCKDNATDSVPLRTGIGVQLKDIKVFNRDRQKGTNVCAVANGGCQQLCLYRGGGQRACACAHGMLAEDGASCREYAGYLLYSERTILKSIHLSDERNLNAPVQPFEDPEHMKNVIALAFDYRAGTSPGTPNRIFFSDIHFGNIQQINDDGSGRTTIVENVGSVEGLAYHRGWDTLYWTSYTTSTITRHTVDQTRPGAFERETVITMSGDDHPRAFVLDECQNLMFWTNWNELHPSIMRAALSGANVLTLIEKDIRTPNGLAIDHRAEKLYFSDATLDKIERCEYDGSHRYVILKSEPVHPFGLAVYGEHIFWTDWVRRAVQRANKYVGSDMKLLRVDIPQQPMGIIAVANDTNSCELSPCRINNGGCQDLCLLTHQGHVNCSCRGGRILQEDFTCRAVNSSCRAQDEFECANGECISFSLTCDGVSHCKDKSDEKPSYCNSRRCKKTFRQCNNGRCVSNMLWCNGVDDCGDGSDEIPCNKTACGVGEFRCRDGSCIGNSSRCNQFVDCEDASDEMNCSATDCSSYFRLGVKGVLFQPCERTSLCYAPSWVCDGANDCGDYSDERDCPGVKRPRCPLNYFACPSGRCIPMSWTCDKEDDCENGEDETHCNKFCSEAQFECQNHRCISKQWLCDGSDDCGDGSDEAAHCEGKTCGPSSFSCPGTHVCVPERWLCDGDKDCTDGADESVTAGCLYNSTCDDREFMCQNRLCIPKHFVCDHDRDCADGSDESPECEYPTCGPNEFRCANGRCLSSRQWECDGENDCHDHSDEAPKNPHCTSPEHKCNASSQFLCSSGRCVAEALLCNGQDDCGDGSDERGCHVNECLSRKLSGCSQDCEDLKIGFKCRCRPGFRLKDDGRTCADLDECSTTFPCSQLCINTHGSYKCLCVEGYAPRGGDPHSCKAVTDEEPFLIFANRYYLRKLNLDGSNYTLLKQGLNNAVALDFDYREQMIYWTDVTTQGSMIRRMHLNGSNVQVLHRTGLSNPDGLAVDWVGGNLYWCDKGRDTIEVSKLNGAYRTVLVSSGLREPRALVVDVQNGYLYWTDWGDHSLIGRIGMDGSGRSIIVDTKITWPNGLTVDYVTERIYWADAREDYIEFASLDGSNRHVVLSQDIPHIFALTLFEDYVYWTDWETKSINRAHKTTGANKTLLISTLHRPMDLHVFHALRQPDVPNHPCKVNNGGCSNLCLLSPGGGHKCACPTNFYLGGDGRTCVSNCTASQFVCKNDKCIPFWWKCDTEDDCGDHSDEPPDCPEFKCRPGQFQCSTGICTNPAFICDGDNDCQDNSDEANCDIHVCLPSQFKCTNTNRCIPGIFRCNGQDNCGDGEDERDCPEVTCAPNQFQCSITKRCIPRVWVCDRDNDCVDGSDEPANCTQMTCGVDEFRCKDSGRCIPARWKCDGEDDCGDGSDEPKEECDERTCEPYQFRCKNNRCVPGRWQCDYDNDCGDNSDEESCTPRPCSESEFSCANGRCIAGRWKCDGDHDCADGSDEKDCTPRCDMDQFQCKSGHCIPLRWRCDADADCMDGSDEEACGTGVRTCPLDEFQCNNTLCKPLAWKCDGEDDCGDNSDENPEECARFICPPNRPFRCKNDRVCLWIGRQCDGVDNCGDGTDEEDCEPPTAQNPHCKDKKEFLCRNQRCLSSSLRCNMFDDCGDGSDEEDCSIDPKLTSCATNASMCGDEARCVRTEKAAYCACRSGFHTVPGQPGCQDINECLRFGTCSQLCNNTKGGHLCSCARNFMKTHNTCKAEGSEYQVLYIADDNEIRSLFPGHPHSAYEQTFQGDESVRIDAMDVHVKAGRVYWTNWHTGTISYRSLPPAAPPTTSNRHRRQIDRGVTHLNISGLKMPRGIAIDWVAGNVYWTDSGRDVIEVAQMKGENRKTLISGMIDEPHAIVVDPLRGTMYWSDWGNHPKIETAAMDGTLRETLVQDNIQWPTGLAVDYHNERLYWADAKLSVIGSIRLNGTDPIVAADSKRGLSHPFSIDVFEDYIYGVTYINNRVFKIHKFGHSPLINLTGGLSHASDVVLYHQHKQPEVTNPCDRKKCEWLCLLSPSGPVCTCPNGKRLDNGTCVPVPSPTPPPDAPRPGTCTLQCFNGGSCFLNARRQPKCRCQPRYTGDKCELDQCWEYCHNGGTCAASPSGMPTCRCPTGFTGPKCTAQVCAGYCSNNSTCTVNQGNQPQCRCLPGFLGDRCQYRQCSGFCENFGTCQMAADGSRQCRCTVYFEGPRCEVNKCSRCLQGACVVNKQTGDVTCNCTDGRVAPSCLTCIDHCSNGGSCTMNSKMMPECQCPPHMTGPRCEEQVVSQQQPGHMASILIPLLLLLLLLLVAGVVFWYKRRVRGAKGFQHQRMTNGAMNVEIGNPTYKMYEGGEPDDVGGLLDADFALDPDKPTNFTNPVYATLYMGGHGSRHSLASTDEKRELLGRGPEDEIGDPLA

As to `CCN1\C(=C/C=C/C=C/C2=[N+](CCCCCC(=O)O)c3ccc4c(S(=O)(=O)O)cc(S(=O)(=O)O)cc4c3C2(C)C)C(C)(C)c2c1ccc1c(S(=O)(=O)[O-])cc(S(=O)(=O)O)cc21` [Cy5.5], the “distribution in cochleae, free dye” value in data set [1] is “limited distribution inside blood vessels in the SV and SGN regions”.

What is called Kd is the equilibrium constant for the complex coming apart. Consider TFYGGRPKRNNFLRGIRSRGD [IETP2], for which the Kd in data set [2] stood at 738 nM. Also, the “signal in the cochleae compared to brain and muscle” value in data set [3] is given as “much stronger”. In addition, the “ototoxicity (ABR thresholds)” value in data set [4] is “no obvious ototoxicity”. The “transport into the inner ear of pigs” value in data set [5] is reported as “could be transported into the inner ears”.
